Experimental data published in patent publication US8952024B2, “Herbicidal pyrimidone derivatives” (E I du Pont de Nemours and Company, priority 2009, dated 2015).

Experiments:
Format in all cases: in vivo
[1] = test system: Surinam grass (Brachiaria decumbens); experiment: Test B pre-/postemergence plant response
Summary of the method: (§1)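 Visual injury, 0–100 scale (100 = complete control), rated against controls after 13 to 15 days in greenhouse. Pre-emergence: seeds in loam/sand soil, treated at planting. Post-emergence: 1- to 4-leaf plants (2 to 18 cm) in peat/vermiculite medium. Compounds formulated in non-phytotoxic solvent with surfactant.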

[2] = test system: Italian ryegrass (Lolium multiflorum); experiment: Test B pre-/postemergence plant response
Summary of the method: as §1

[3] = test system: morningglory (Ipomoea coccinea); experiment: Test B pre-/postemergence plant response
Summary of the method: as §1

[4] = test system: pigweed (Amaranthus retroflexus); experiment: Test B pre-/postemergence plant response
Summary of the method: as §1

[5] = test system: giant foxtail (Setaria faberii); experiment: Test B pre-/postemergence plant response
Summary of the method: as §1

[6] = test system: blackgrass (Alopecurus myosuroides); experiment: Test B pre-/postemergence plant response; conditions: for Blackgrass plant response rating (0 to 100 scale): 0 is no effect
Summary of the method: as §1

[7] = test system: corn (Zea mays); experiment: Test B pre-/postemergence plant response
Summary of the method: as §1

[8] = test system: wild oat (Avena fatua); experiment: Test B pre-/postemergence plant response
Summary of the method: as §1

[9] = test system: downy bromegrass (Bromus tectorum); experiment: Test B pre-/postemergence plant response; conditions: for Bromegrass, Downy plant response rating (0 to 100 scale): 0 is no effect
Summary of the method: as §1

[10] = test system: cocklebur (Xanthium strumarium); experiment: Test B pre-/postemergence plant response
Summary of the method: as §1

[11] = test system: chickweed (Stellaria media); experiment: Test B postemergence plant response
Summary of the method: (§2)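 Plants grown in peat/vermiculite medium were sprayed postemergence at 2–18 cm height (1- to 4-leaf stage). After 13–15 days in the greenhouse, response was rated visually against untreated controls on a 0–100 scale (0 no effect, 100 complete control).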

[12] = test system: windgrass (Apera spica-venti); experiment: Test B postemergence plant response
Summary of the method: as §2

[13] = test system: canarygrass (Phalaris minor); experiment: Test B postemergence plant response
Summary of the method: as §2

[14] = Postemergence, 31 g ai/ha, 0 to 100 scale (0 no effect, 100 complete control)
[15] = Postemergence, 62 g ai/ha, scale 0 to 100 (0 no effect, 100 complete control)
[16] = Postemergence, 250 g ai/ha, scale 0 to 100 (0 no effect, 100 complete control), 13 to 15 days
[17] = Postemergence, 125 g ai/ha, scale 0 to 100 (0 no effect, 100 complete control)
[18] = 62 g ai/ha, postemergence, 100 is complete control, 13 to 15 days
[19] = 31 g ai/ha, postemergence, scale 0 to 100, 0 is no effect, 100 is complete control
[20] = 62 g ai/ha, postemergence, 0 is no effect, 100 is complete control, 13 to 15 days
[21] = Postemergence, 250 g ai/ha, scale 0 to 100 (0 no effect, 100 complete control)
[22] = Postemergence, 125 g ai/ha, visual rating after 13 to 15 days, scale 0 (no effect) to 100 (complete control)

## COCCn1c(-c2ccsc2)ncc(C(=O)C2=C(O)C3CCC(C3)C2=O)c1=O (stereo not drawn) [Compound 228]
[1]; [14]
  Plant response rating, Surinam Grass: 75
[1]; [15]
  Plant response rating, Surinam Grass: 85
[1]; [16]
  Plant response rating, Surinam Grass: 98
[2]; [14]
  Plant response rating, Ryegrass, Italian: 0
[2]; [15]
  Plant response rating, Ryegrass, Italian: 0
[2]; [16]
  Plant response rating, Ryegrass, Italian: 0
[3]; [14]
  Plant response rating, Morningglory: 100
[3]; [15]
  Plant response rating, Morningglory: 100
[3]; [17]
  Plant response rating, Morningglory: 100
[3]; [16]
  Plant response rating, Morningglory: 100
[4]; [14]
  Plant response rating, Pigweed: 98
[4]; [15]
  Plant response rating, Pigweed: 100
[4]; [16]
  Plant response rating, Pigweed: 100
[5]; [14]
  Plant response rating, Foxtail, Giant: 85
[5]; [15]
  Plant response rating, Foxtail, Giant: 85
[5]; [17]
  Plant response rating, Foxtail, Giant: 95
[5]; [16]
  Plant response rating, Foxtail, Giant: 95
[6]; [14]
  Plant response rating, Blackgrass: 5
[6]; [15]
  Plant response rating, Blackgrass: 35
[6]; [17]
  Plant response rating, Blackgrass: 50
[6]; [16]
  Plant response rating, Blackgrass: 55
[7]; [14]
  Plant response rating, Corn: 80
[7]; [15]
  Plant response rating, Corn: 85
[7]; [17]
  Plant response rating, Corn: 85
[7]; [16]
  Plant response rating, Corn: 90
[8]; [14]
  Plant response rating, Oat, Wild: 0
[8]; [15]
  Plant response rating, Oat, Wild: 5
[8]; [16]
  Plant response rating, Oat, Wild: 40
[9]; [14]
  Plant response rating, Bromegrass, Downy: 5
[9]; [15]
  Plant response rating, Bromegrass, Downy: 5
[9]; [17]
  Plant response rating, Bromegrass, Downy: 10
[9]; [16]
  Plant response rating, Bromegrass, Downy: 10
[10]; [14]
  Plant response rating, Cocklebur: 98
[10]; [15]
  Plant response rating, Cocklebur: 98
[10]; [17]
  Plant response rating, Cocklebur: 100
[10]; [16]
  Plant response rating, Cocklebur: 100
[11]; [14]
  Plant response rating, Chickweed: 98
[11]; [15]
  Plant response rating, Chickweed: 100
[11]; [17]
  Plant response rating, Chickweed: 100
[11]; [16]
  Plant response rating, Chickweed: 100
[12]; [14]
  Plant response rating, Windgrass: 5
[12]; [15]
  Plant response rating, Windgrass: 50
[12]; [16]
  Plant response rating, Windgrass: 90
[13]; [14]
  Plant response rating, Canarygrass: 0
[13]; [15]
  Plant response rating, Canarygrass: 0
[13]; [17]
  Plant response rating, Canarygrass: 5
[13]; [16]
  Plant response rating, Canarygrass: 10

## O=C1CCCC(O)=C1C(=O)c1cnc(-c2cccc(F)c2)n(C2CCCCC2)c1=O [Compound 187]
[1]; [14]
  Plant response rating, Surinam Grass: 65
[2]; [14]
  Plant response rating, Ryegrass, Italian: 0
[2]; [17]
  Plant response rating, Ryegrass, Italian: 10
[2]; [16]
  Plant response rating, Ryegrass, Italian: 30
[3]; [14]
  Plant response rating, Morningglory: 80
[3]; [17]
  Plant response rating, Morningglory: 100
[3]; [16]
  Plant response rating, Morningglory: 100
[4]; [14]
  Plant response rating, Pigweed: 100
[4]; [17]
  Plant response rating, Pigweed: 100
[4]; [16]
  Plant response rating, Pigweed: 100
[5]; [14]
  Plant response rating, Foxtail, Giant: 98
[5]; [17]
  Plant response rating, Foxtail, Giant: 100
[5]; [16]
  Plant response rating, Foxtail, Giant: 100
[6]; [18]
  Blackgrass plant response rating (0 to 100 scale): 0
[6]; [14]
  Plant response rating, Blackgrass: 0
[6]; [17]
  Plant response rating, Blackgrass: 5
[6]; [16]
  Plant response rating, Blackgrass: 5
[7]; [14]
  Plant response rating, Corn: 50
[7]; [17]
  Plant response rating, Corn: 75
[7]; [16]
  Plant response rating, Corn: 80
[8]; [14]
  Plant response rating, Oat, Wild: 10
[8]; [17]
  Plant response rating, Oat, Wild: 45
[8]; [16]
  Plant response rating, Oat, Wild: 45
[9]; [18]
  Bromegrass, Downy plant response rating (0 to 100 scale): 30
[9]; [14]
  Plant response rating, Bromegrass, Downy: 5
[9]; [17]
  Plant response rating, Bromegrass, Downy: 35
[9]; [16]
  Plant response rating, Bromegrass, Downy: 40
[10]; [14]
  Plant response rating, Cocklebur: 100
[10]; [17]
  Plant response rating, Cocklebur: 100
[10]; [16]
  Plant response rating, Cocklebur: 100
[11]; [14]
  Plant response rating, Chickweed: 100
[11]; [17]
  Plant response rating, Chickweed: 100
[11]; [16]
  Plant response rating, Chickweed: 100
[12]; [14]
  Plant response rating, Windgrass: 10
[12]; [17]
  Plant response rating, Windgrass: 65
[12]; [16]
  Plant response rating, Windgrass: 80
[13]; [14]
  Plant response rating, Canarygrass: 10
[13]; [17]
  Plant response rating, Canarygrass: 55
[13]; [16]
  Plant response rating, Canarygrass: 60

## CC(C)n1c(-c2ccccc2)ncc(C(=O)C2=C(O)CCCC2=O)c1=O [Compound 95]
[1]; [19]
  Plant response rating, Surinam Grass: 45
[1]; [20]
  Surinam Grass plant response rating (0 to 100 scale): 45
[1]; [21]
  Plant response rating, Surinam Grass: 70
[2]; [19]
  Plant response rating, Ryegrass, Italian: 0
[2]; [20]
  Ryegrass, Italian plant response rating (0 to 100 scale): 0
[2]; [21]
  Plant response rating, Ryegrass, Italian: 0
[3]; [19]
  Plant response rating, Morningglory: 100
[3]; [20]
  Morningglory plant response rating (0 to 100 scale): 100
[3]; [21]
  Plant response rating, Morningglory: 100
[4]; [19]
  Plant response rating, Pigweed: 85
[4]; [20]
  Pigweed plant response rating (0 to 100 scale): 98
[4]; [21]
  Plant response rating, Pigweed: 100
[5]; [19]
  Plant response rating, Foxtail, Giant: 45
[5]; [20]
  Foxtail, Giant plant response rating (0 to 100 scale): 65
[5]; [21]
  Plant response rating, Foxtail, Giant: 85
[6]; [19]
  Plant response rating, Blackgrass: 0
[6]; [18]
  Blackgrass plant response rating (0 to 100 scale): 0
[6]; [22]
  Plant response rating, Blackgrass: 0
[6]; [21]
  Plant response rating, Blackgrass: 5
[7]; [19]
  Plant response rating, Corn: 0
[7]; [20]
  Corn plant response rating (0 to 100 scale): 0
[7]; [22]
  Plant response rating, Corn: 25
[7]; [21]
  Plant response rating, Corn: 35
[8]; [19]
  Plant response rating, Oat, Wild: 0
[8]; [20]
  Oat, Wild plant response rating (0 to 100 scale): 0
[8]; [21]
  Plant response rating, Oat, Wild: 0
[9]; [19]
  Plant response rating, Bromegrass, Downy: 0
[9]; [18]
  Bromegrass, Downy plant response rating (0 to 100 scale): 0
[9]; [22]
  Plant response rating, Bromegrass, Downy: 0
[9]; [21]
  Plant response rating, Bromegrass, Downy: 0
[10]; [19]
  Plant response rating, Cocklebur: 70
[10]; [20]
  Cocklebur plant response rating (0 to 100 scale): 95
[10]; [22]
  Plant response rating, Cocklebur: 100
[10]; [21]
  Plant response rating, Cocklebur: 100
[11]; [19]
  Plant response rating, Chickweed: 75
[11]; [20]
  Chickweed plant response rating (0 to 100 scale): 85
[11]; [22]
  Plant response rating, Chickweed: 98
[11]; [21]
  Plant response rating, Chickweed: 100
[12]; [19]
  Plant response rating, Windgrass: 0
[12]; [20]
  Windgrass plant response rating (0 to 100 scale): 0
[12]; [21]
  Plant response rating, Windgrass: 0
[13]; [19]
  Plant response rating, Canarygrass: 0
[13]; [20]
  Canarygrass plant response rating (0 to 100 scale): 0
[13]; [22]
  Plant response rating, Canarygrass: 0
[13]; [21]
  Plant response rating, Canarygrass: 0

## CCCn1c(-c2cccc(Cl)c2)ncc(C(=O)C2=C(O)CCCC2=O)c1=O [Compound 190]
[1]; [14]
  Plant response rating, Surinam Grass: 60
[1]; [17]
  Plant response rating, Surinam Grass: 75
[1]; [16]
  Plant response rating, Surinam Grass: 90
[2]; [14]
  Plant response rating, Ryegrass, Italian: 0
[2]; [17]
  Plant response rating, Ryegrass, Italian: 20
[2]; [16]
  Plant response rating, Ryegrass, Italian: 30
[3]; [14]
  Plant response rating, Morningglory: 40
[3]; [17]
  Plant response rating, Morningglory: 85
[3]; [16]
  Plant response rating, Morningglory: 100
[4]; [14]
  Plant response rating, Pigweed: 65
[4]; [17]
  Plant response rating, Pigweed: 100
[4]; [16]
  Plant response rating, Pigweed: 100
[5]; [14]
  Plant response rating, Foxtail, Giant: 70
[5]; [17]
  Plant response rating, Foxtail, Giant: 90
[5]; [16]
  Plant response rating, Foxtail, Giant: 95
[6]; [18]
  Blackgrass plant response rating (0 to 100 scale): 30
[6]; [14]
  Plant response rating, Blackgrass: 5
[6]; [17]
  Plant response rating, Blackgrass: 35
[6]; [16]
  Plant response rating, Blackgrass: 40
[7]; [14]
  Plant response rating, Corn: 0
[7]; [17]
  Plant response rating, Corn: 40
[7]; [16]
  Plant response rating, Corn: 65
[8]; [14]
  Plant response rating, Oat, Wild: 0
[8]; [17]
  Plant response rating, Oat, Wild: 40
[8]; [16]
  Plant response rating, Oat, Wild: 50
[9]; [18]
  Bromegrass, Downy plant response rating (0 to 100 scale): 30
[9]; [14]
  Plant response rating, Bromegrass, Downy: 5
[9]; [17]
  Plant response rating, Bromegrass, Downy: 35
[9]; [16]
  Plant response rating, Bromegrass, Downy: 35
[10]; [14]
  Plant response rating, Cocklebur: 40
[10]; [17]
  Plant response rating, Cocklebur: 95
[10]; [16]
  Plant response rating, Cocklebur: 100
[11]; [17]
  Plant response rating, Chickweed: 100
[11]; [16]
  Plant response rating, Chickweed: 100
[12]; [14]
  Plant response rating, Windgrass: 15
[12]; [17]
  Plant response rating, Windgrass: 65
[12]; [16]
  Plant response rating, Windgrass: 65
[13]; [14]
  Plant response rating, Canarygrass: 0
[13]; [17]
  Plant response rating, Canarygrass: 25
[13]; [16]
  Plant response rating, Canarygrass: 55
